Source: ChEMBL document CHEMBL3044789, “Comparing weed and crop seedling response to pre-emergence pendimethalin application in Corchorus olitorius and Abelmoschus esculentus” (Crop Prot, 2006)

Legend:
[1] = test system: Calopogonium mucunoides; assay: Herbicidal activity against Calopogonium mucunoides in Corchorus olitorius plots assessed as weed cover at 0.66 kg a.i/ha after 4 weeks (reference value: 20.1+/- 0.57 %); format: functional
[2] = test system: Ageratum conyzoides; assay: Herbicidal activity against Ageratum conyzoides in Abelmoschus esculentus plots assessed as weed cover at 1.32 kg a.i/ha after 4 weeks (reference value: 22.6 +/- 0.49 %); format: functional
[3] = test system: Commelina diffusa; assay: Herbicidal activity against Commelina diffusa in Abelmoschus esculentus plots assessed as weed cover at 0.66 kg a.i/ha after 4 weeks (reference value: 22.6 +/- 0.49 %); format: functional
[4] = test system: Synedrella nodiflora; assay: Herbicidal activity against Synedrella nodiflora in Abelmoschus esculentus plots assessed as weed cover at 0.66 kg a.i/ha after 4 weeks (reference value: 22.6 +/- 0.49 %); format: functional
[5] = test system: Calopogonium mucunoides; assay: Herbicidal activity against Calopogonium mucunoides in Abelmoschus esculentus plots assessed as weed cover at 0.99 kg a.i/ha after 2 weeks (reference value: 63.5 +/- 0.29 %); format: functional
[6] = test system: Commelina diffusa; assay: Herbicidal activity against Commelina diffusa in Abelmoschus esculentus plots assessed as weed cover at 0.66 kg a.i/ha after 2 weeks (reference value: 63.5 +/- 0.29 %); format: functional
[7] = test system: Cyperus rotundus; assay: Herbicidal activity against Cyperus rotundus in Abelmoschus esculentus plots assessed as weed cover at 0.66 kg a.i/ha after 2 weeks (reference value: 63.5 +/- 0.29 %); format: functional
[8] = test system: Calopogonium mucunoides; assay: Herbicidal activity against Calopogonium mucunoides in Abelmoschus esculentus plots assessed as weed cover at 0.66 kg a.i/ha after 2 weeks (reference value: 63.5 +/- 0.29 %); format: functional
[9] = test system: Euphorbia heterophylla; assay: Herbicidal activity against Euphorbia heterophylla in Abelmoschus esculentus plots assessed as major weed growth at 0.99 kg a.i/ha after 2 weeks; format: functional
[10] = test system: Synedrella nodiflora; assay: Herbicidal activity against Synedrella nodiflora in Abelmoschus esculentus plots assessed as major weed growth at 0.33 kg a.i/ha after 2 weeks; format: functional
[11] = test system: Ageratum conyzoides; assay: Herbicidal activity against Ageratum conyzoides in Abelmoschus esculentus plots assessed as major weed growth at 0.33 kg a.i/ha after 2 weeks; format: functional
[12] = test system: Rottboellia cochinchinensis; assay: Herbicidal activity against Rottboellia cochinchinensis in Abelmoschus esculentus plots assessed as major weed growth at 0.33 kg a.i/ha after 2 weeks; format: functional
[13] = test system: Euphorbia heterophylla; assay: Herbicidal activity against Euphorbia heterophylla in Corchorus olitorius plots assessed as major weed growth at 0.66 kg a.i/ha after 2 weeks; format: functional
[14] = test system: Synedrella nodiflora; assay: Herbicidal activity against Synedrella nodiflora in Corchorus olitorius plots assessed as minor weed growth at 0.66 kg a.i/ha after 2 weeks; format: functional
[15] = test system: Ageratum conyzoides; assay: Herbicidal activity against Ageratum conyzoides in Corchorus olitorius plots assessed as minor weed growth at 1.32 kg a.i/ha after 2 weeks; format: functional
[16] = test system: Ageratum conyzoides; assay: Herbicidal activity against Ageratum conyzoides in Abelmoschus esculentus plots assessed as weed cover at 1.32 kg a.i/ha after 7 weeks (reference value: 14.7 +/- 0.46 %); format: functional
[17] = test system: Euphorbia heterophylla; assay: Herbicidal activity against Euphorbia heterophylla in Abelmoschus esculentus plots assessed as weed cover at 0.66 kg a.i/ha after 7 weeks (reference value: 14.7 +/- 0.46 %); format: functional
[18] = test system: Euphorbia heterophylla; assay: Herbicidal activity against Euphorbia heterophylla in Abelmoschus esculentus plots assessed as weed cover at 1.32 kg a.i/ha after 2 weeks (reference value: 63.5 +/- 0.29 %); format: functional
[19] = test system: Ageratum conyzoides; assay: Herbicidal activity against Ageratum conyzoides in Corchorus olitorius plots assessed as weed recovery at 1.32 kg a.i/ha after 2 weeks (reference value: 78.3 +/- 0.74 %); format: functional
[20] = test system: Synedrella nodiflora; assay: Herbicidal activity against Synedrella nodiflora in Corchorus olitorius plots assessed as weed recovery at 0.99 kg a.i/ha after 2 weeks (reference value: 78.3 +/- 0.74 %); format: functional
[21] = test system: Corchorus olitorius; assay: Phytotoxicity in Corchorus olitorius assessed as crop seedling injury at 0.99 kg a.i/ha after 2 weeks relative to untreated control; format: organism-based; conditions: in vivo, 336 h
[22] = test system: Synedrella nodiflora; assay: Herbicidal activity against Synedrella nodiflora in Abelmoschus esculentus plots assessed as weed cover at 0.33 kg a.i/ha after 7 weeks (reference value: 14.7 +/- 0.46 %); format: functional
[23] = test system: Ageratum conyzoides; assay: Herbicidal activity against Ageratum conyzoides in Abelmoschus esculentus plots assessed as weed cover at 0.33 kg a.i/ha after 7 weeks (reference value: 14.7 +/- 0.46 %); format: functional
[24] = test system: Corchorus olitorius; assay: Phytotoxicity in Corchorus olitorius assessed as root length at 0.99 kg a.i/ha applied as solution after 7 weeks (reference value: 14.3 +/- 1.06 mm); format: organism-based; conditions: in vivo, other, 1176 h
[25] = test system: Corchorus olitorius; assay: Phytotoxicity in Corchorus olitorius assessed as seedling injury at 0.66 kg a.i/ha applied as solution after 7 weeks relative to control; format: organism-based; conditions: in vivo, other, 1176 h
[26] = test system: Synedrella nodiflora; assay: Herbicidal activity against Synedrella nodiflora in Corchorus olitorius plots assessed as weed recovery at 1.32 kg a.i/ha after 2 weeks (reference value: 78.3 +/- 0.74 %); format: functional
[27] = test system: Calopogonium mucunoides; assay: Herbicidal activity against Calopogonium mucunoides in Corchorus olitorius plots assessed as weed cover at 0.33 kg a.i/ha after 7 weeks (reference value: 1.7 +/- 0.56 %); format: functional
[28] = test system: Synedrella nodiflora; assay: Herbicidal activity against Synedrella nodiflora in Corchorus olitorius plots assessed as weed cover at 0.33 kg a.i/ha after 7 weeks (reference value: 1.7 +/- 0.56 %); format: functional
[29] = test system: Abelmoschus esculentus; assay: Phytotoxicity in Abelmoschus esculentus assessed as seedling injury at 0.66 kg a.i/ha applied as solution after 7 weeks relative to control; format: organism-based; conditions: in vivo, other, 1176 h
[30] = test system: Calopogonium mucunoides; assay: Herbicidal activity against Calopogonium mucunoides in Abelmoschus esculentus plots assessed as minor weed growth at 0.66 kg a.i/ha after 2 weeks; format: functional
[31] = test system: Abelmoschus esculentus; assay: Phytotoxicity in Abelmoschus esculentus assessed as crop seedling injury at 0.99 kg a.i/ha after 2 weeks relative to untreated control; format: organism-based; conditions: in vivo, 336 h
[32] = test system: Chromolaena odorata; assay: Herbicidal activity against Chromolaena odorata in Corchorus olitorius plots assessed as weed recovery at 0.99 kg a.i/ha after 2 weeks (reference value: 78.3 +/- 0.74 %); format: functional
[33] = test system: Abelmoschus esculentus; assay: Phytotoxicity in Abelmoschus esculentus assessed as seed germination at 0.99 kg a.i/ha applied as solution after 7 weeks (reference value: 85.7 +/- 0.36 %); format: organism-based; conditions: in vivo, other, 1176 h
[34] = test system: Corchorus olitorius; assay: Phytotoxicity in Corchorus olitorius assessed as seedling emergence at 0.66 kg a.i/ha treated to soil after 7 weeks (reference value: 95 +/- 0.05 %); format: organism-based; conditions: in vivo, other, 1176 h
[35] = test system: Abelmoschus esculentus; assay: Phytotoxicity in Abelmoschus esculentus assessed as crop seedling injury at 0.66 kg a.i/ha after 2 weeks relative to untreated control; format: organism-based; conditions: in vivo, 336 h
[36] = test system: Synedrella nodiflora; assay: Herbicidal activity against Synedrella nodiflora in Abelmoschus esculentus plots assessed as weed recovery at 1.32 kg a.i/ha after 2 weeks (reference value: 60.1 +/- 0.46 %); format: functional
[37] = test system: Euphorbia heterophylla; assay: Herbicidal activity against Euphorbia heterophylla in Abelmoschus esculentus plots assessed as weed recovery at 0.99 kg a.i/ha after 2 weeks (reference value: 60.1 +/- 0.46 %); format: functional

SMILES: CCC(CC)Nc1c([N+](=O)[O-])cc(C)c(C)c1[N+](=O)[O-] [PENDIMETHALIN]
- Activity [1]: 63.3%
- Activity [2]: 36.2%
- Activity [3]: 47.9%
- Activity [4]: 47.9%
- Activity [5]: 47.9%
- Activity [6]: 50.8%
- Activity [7]: 50.8%
- Activity [8]: 50.8%
- Activity [9]: 31 /m2
- Activity [10]: 31 /m2
- Activity [11]: 31 /m2
- Activity [12]: 31 /m2
- Activity [13]: 31 /m2
- Activity [14]: 1 /m2
- Activity [15]: 1 /m2
- Activity [16]: 82.4%
- Activity [17]: 90%
- Activity [18]: 45%
- Activity [19]: 13.3%
- Activity [20]: 21.7%
- Activity [21]: 60%
- Activity [22]: 90%
- Activity [23]: 90%
- Activity [24]: 2.5 mm
- Activity [25]: 31.7%
- Activity [26]: 13.3%
- Activity [27]: 100%
- Activity [28]: 100%
- Activity [29]: 39.2%
- Activity [30]: 1 /m2
- Activity [31]: 47.9%
- Activity [32]: 21.7%
- Activity [33]: 41.1%
- Activity [34]: 83.3%
- Activity [35]: 42.1%
- Activity [36]: 33.2%
- Activity [37]: 36.2%
